The values that follow come from US11758905B2, “Amphotericin B and β-1,3-glucanase loaded bi-functional nano-system with both targets, preparation method and application thereof” (QINGDAO AGRICULTURAL UNIVERSITY, priority 2021, dated 2023).

What all share (assay type): cell-based
The test system of assay [1] is Candida albicans BF 3. In words: Minimum inhibitory concentration determination. Particulars: clinical isolate BF 3; 24 h, 37° C. As for the experimental part:
(§1) Fungus strain: Candida albicans DAY185; 3 clinical isolates of Candida albicans, obtained from Medical University of Vienna, named as Candida albicans BF 1, BF 2 and BF 3.
(§2) 100 μl of Candida albicans (1×10^6 CFU/mL) is added to a 96-pore plate containing different concentrations (2, 1, 0.5, 0.25, 0.125, 0.0625 or 0 μg/mL) of free AmpB and CSNP-AmpB-Gls. The micropore plate is rotated at a rotation speed of 150 rpm and incubated at 37° C. for 24 h. The minimum inhibitory concentration is defined as the minimum AmpB concentration at which visible growth cannot be detected.

The subject of assay [2] is Candida albicans DAY185. In words: Minimum inhibitory concentration determination. The settings on record: strain DAY 185; 24 h, 37° C.; minimum AmpB concentration without visible growth. How it is done:
as §1, §2

Assay [3] has as its system Candida albicans BF 1. In words: Minimum inhibitory concentration determination. The settings on record: clinical isolate BF 1; 24 h, 37° C. As for the experimental part:
as §1, §2

Assay [4] concerns Candida albicans BF 2. The assay can be described thus: Minimum inhibitory concentration determination. The settings on record: clinical isolate BF 2; 24 h, 37° C. How it is done: as §1, §2
Assay [5] deals with Candida albicans biofilm on silica gel. The assay can be described thus: Influence on medical silica gel surface biofilm (CLSM viable/dead staining, SEM). How it is done: The biofilm on a silica gel is treated by free AmpB and NPs by following the method described above. The biofilm structure is studied through a scanning electron microscope. The biofilm survivability is observed with CLSM, and viable/dead fungus staining kit is used for staining, […]

As for `C[C@@H]1[C@H](O)[C@@H](C)/C=C/C=C/C=C/C=C/C=C/C=C/C=C/[C@H](O[C@@H]2O[C@H](C)[C@@H](O)[C@H](N)[C@@H]2O)C[C@@H]2O[C@](O)(C[C@@H](O)C[C@@H](O)[C@H](O)CC[C@@H](O)C[C@@H](O)CC(=O)O[C@H]1C)C[C@H](O)[C@H]2C(=O)O` [AmpB, amphotericin B], the “AmpB MIC” value in assay [1] turned out to be 4 µg/mL; in assay [2], 1 µg/mL; in assay [3], 2 µg/mL; in assay [4], 2 µg/mL. Also, in assay [5] (silica gel, FIG. 6), the “biofilm structure change by SEM” value is recorded as “significantly reduces fungus colonization”. Further, the “cell viability of the biofilm on silica gel by CLSM” value in assay [5] (viable/dead staining, FIG. 5) is “green (viable cells) is significantly reduced”.
